Reference: US20230365542A1, “Selective Agonists of 5-HT2A Receptor and Methods of Use” (Yale University, priority 2020, published 2023)
pEC50, pKi: −log10 of the molar value. Entries after “also recorded” stand apart in the source; their conditions may differ. Where two headings read alike, the source gives them in different places.

Assays:
[1] = system: C57BL/6J mice; assay: Head twitch response (HTR) in mice; format: in vivo; details: first 30 min after injection (i.p.)
Method: (§1) Open field: this apparatus has been described in the literature (Acta Crystallographica Section D, 2010, 66:486-501). Mice were placed into the open field for 30 min, injected with vehicle, (+)-LSD-(+)-tartrate (NIDA Drug Supply Program, Bethesda, MID), 38, or 33 (i.p.), and returned immediately to the open field for 30 min. Locomotion was monitored using Fusion Integra software (Omnitech, Columbus, OH).
Head twitch response: HTRs were filmed in the open field and were scored following drug administration for 30 min as described in the literature (Acta Crystallographica Section D, 2019, 75:861-877).
(§2) Statistics: Statistical analyses were performed with IBM SPSS Statistics 27 programs (IBM, Chicago, IL). The data are presented as means and standard errors of the mean. No sex effects were detected. One- or two-way ANOVA or repeated measures ANOVA (RMANOVA) were used, followed by Bonferroni corrected post-hoc analyses. A p<0.05 was considered significant. All behavioral results were plotted using GraphPad Prism.

[2] = system: C57BL/6J mice; assay: Open field locomotion in mice; format: in vivo; details: i.p.
Method: as §1, §2

[3] = biological target: T1, 5-HT2AR (Homo sapiens, UniProt P28223); assay: Calcium flux assay (FLIPR, Fluo-4), 5-HT2AR stable cell line; format: cell-based; details: for EC50: bracketed value below EC50, read-out: 5-HT2AR pEC50 ± S.E.M (converted); for 5-HT2AR Rmax ± S.E.M: value in parentheses; for pEC50: read-out: 5-HT2AR EC50
T1 construct: expressed in transfected cells; host or cells: Flp-In 293 T-Rex (tetracycline inducible)
T1 sequence (P28223 whole entry): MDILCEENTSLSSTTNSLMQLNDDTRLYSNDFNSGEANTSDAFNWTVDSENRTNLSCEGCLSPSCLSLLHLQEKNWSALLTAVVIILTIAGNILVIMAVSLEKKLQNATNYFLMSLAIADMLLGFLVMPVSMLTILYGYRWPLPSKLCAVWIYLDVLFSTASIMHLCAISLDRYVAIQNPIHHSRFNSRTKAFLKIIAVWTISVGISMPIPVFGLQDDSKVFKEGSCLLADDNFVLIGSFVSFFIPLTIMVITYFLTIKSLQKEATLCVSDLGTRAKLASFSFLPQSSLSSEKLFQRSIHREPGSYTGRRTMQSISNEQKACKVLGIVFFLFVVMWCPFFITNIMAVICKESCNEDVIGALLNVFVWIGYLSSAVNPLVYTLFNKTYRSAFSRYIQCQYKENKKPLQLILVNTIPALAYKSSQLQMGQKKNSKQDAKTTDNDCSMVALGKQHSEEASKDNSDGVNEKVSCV
Method: (§3) Stable cell lines for 5-HT2AR, 5-HT2BR and 5-HT2CR generated using the Flp-In 293 T-Rex Tetracycline inducible system (Invitrogen). Tetracycline-induced cells were seeded in 384-well poly-L-lysine plates at a density of 10,000 cells/well in DMEM containing 1% dialyzed FBS at least 16-24 hr before the calcium flux assay. On the day of the assay, the cells were incubated (20 ul/well) for 1 hr at 37° C. with Fluo-4 Direct dye (Invitrogen) reconstituted in FLIPR buffer (1×HBSS, 2.5 mM probenecid, and 20 mM HEPES, pH 7.4). After dye loading, cells were placed in a FLIPR^TETRA fluorescence imaging plate reader (Molecular Dynamics). Drug dilutions were prepared at 3× final concentration in drug buffer (1×HBSS, 20 mM HEPES, 0.1% BSA, 0.01% ascorbic acid, pH 7.4) and aliquoted into 384-well plates and placed in the FLIPR^TETRA for drug stimulation. The fluidics module and plate reader of the FLIPR^TETRA were programmed to read baseline fluorescence for 10s (1 read/s), then 10 ul of drug/well was added and read for 5 min (1 read/s). Fluorescence in each well was normalized to the average of the first 10 reads (i.e., baseline fluorescence). Then, the maximum-fold increase, which occurred within the first 60 s after drug addition, was determined and fold over baseline was plotted as a function of drug concentration. Data were normalized to % 5-HT stimulation and analyzed using “log(agonist) vs. response” in GraphPad Prism 9.0.

[4] = biological target: T2, 5-HT2BR (Homo sapiens, UniProt P41595); assay: Calcium flux assay (FLIPR, Fluo-4), 5-HT2BR stable cell line; format: cell-based; details: for pEC50: read-out: 5-HT2BR EC50; for 5-HT2BR Rmax ± S.E.M: value in parentheses
T2 construct: expressed in transfected cells; host or cells: Flp-In 293 T-Rex (tetracycline inducible)
T2 sequence (P41595 whole entry): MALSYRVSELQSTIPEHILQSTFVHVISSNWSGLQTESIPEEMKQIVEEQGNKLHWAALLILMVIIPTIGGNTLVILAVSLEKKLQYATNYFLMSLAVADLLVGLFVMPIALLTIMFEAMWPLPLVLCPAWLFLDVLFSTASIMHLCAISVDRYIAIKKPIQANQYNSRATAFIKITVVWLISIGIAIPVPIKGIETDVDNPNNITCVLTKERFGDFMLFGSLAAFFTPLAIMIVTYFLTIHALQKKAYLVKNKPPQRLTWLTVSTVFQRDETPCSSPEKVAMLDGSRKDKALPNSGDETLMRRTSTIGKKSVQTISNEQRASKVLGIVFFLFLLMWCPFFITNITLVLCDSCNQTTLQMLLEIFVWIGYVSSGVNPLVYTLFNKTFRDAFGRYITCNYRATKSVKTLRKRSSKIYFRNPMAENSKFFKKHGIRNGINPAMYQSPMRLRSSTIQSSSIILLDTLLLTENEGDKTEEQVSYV
Method: Stable cell lines for 5-HT2AR, 5-HT2BR and 5-HT2CR generated using the Flp-In 293 T-Rex Tetracycline inducible system (Invitrogen). Tetracycline-induced cells were seeded in 384-well poly-L-lysine plates at a density of 10,000 cells/well in DMEM containing 1% dialyzed FBS at least 16-24 hr before the calcium flux assay. On the day of the assay, the cells were incubated (20 ul/well) for 1 hr at 37° C. with Fluo-4 Direct dye (Invitrogen) reconstituted in FLIPR buffer (1×HBSS, 2.5 mM probenecid, and 20 mM HEPES, pH 7.4). After dye loading, cells were placed in a FLIPR^TETRA fluorescence imaging plate reader ([…]). Drug dilutions were prepared at 3× final concentration in drug buffer (1×HBSS, 20 mM HEPES, 0.1% BSA, 0.01% ascorbic acid, pH 7.4) and aliquoted into 384-well plates and placed in the FLIPR^TETRA for drug stimulation. The fluidics module and plate reader of the FLIPR^TETRA were programmed to read baseline fluorescence for 10s (1 read/s), then 10 ul of drug/well was added and read for 5 min (1 read/s). Fluorescence in each well was normalized to the average of the first 10 reads (i.e., baseline fluorescence). Then, the maximum-fold increase, which occurred within the first 60 s after drug addition, was determined and fold over baseline was plotted as a function of drug concentration. Data were normalized to % 5-HT stimulation and analyzed using “log(agonist) vs. response” in GraphPad Prism 9.0.

[5] = biological target: T3, 5-HT2CR (Homo sapiens, UniProt P28335); assay: Calcium flux assay (FLIPR, Fluo-4), 5-HT2CR stable cell line; format: cell-based; details: for pEC50: read-out: 5-HT2CR EC50; for 5-HT2CR Rmax ± S.E.M: value in parentheses
T3 sequence (P28335 33-458): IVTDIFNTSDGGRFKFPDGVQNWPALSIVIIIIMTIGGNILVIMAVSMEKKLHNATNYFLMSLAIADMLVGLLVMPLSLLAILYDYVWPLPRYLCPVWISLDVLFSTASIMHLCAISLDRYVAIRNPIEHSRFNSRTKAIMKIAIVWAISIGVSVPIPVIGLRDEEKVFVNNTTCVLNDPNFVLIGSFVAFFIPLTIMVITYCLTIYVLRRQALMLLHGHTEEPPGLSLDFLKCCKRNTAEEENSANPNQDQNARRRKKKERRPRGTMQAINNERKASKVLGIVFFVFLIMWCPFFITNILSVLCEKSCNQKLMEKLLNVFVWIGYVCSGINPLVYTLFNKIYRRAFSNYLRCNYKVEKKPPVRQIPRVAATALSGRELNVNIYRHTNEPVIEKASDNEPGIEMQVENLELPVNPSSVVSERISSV
Method: as §3

[6] = system: wild-type (WT) and vesicular monoamine transporter 2 (VMAT2) heterozygous (HET) mice; assay: Tail suspension test (immobility time) in wild-type and VMAT2 heterozygous mice; format: in vivo; details: 30 min after administration; for immobility time during the tail suspension test: compared to vehicle
Method: Tail suspension: This test was conducted as described in the literature (Acta Crystallographica Section D, 2010, 66:486-501). […] Immobility times were assessed over 6 min using MedAssociates software.

[7] = biological target: T1, 5-HT2AR; assay: 5-HT2AR binding affinity (Ki), Table 8; details: for pKi: read-out: 5-HT2AR Ki; for Ki: bracketed value below Ki, read-out: 5-HT2AR pKi ± S.E.M (converted)
[8] = biological target: T2, 5-HT2BR; assay: 5-HT2BR binding affinity (Ki), Table 8; details: for pKi: read-out: 5-HT2BR Ki; for Ki: bracketed value below Ki, read-out: 5-HT2BR pKi ± S.E.M (converted)
[9] = biological target: T3, 5-HT2CR; assay: 5-HT2CR binding affinity (Ki), Table 8; details: for pKi: read-out: 5-HT2CR Ki; for Ki: bracketed value below Ki, read-out: 5-HT2CR pKi ± S.E.M (converted)

CCN(CC)C(=O)[C@@H]1C=C2c3cccc4[nH]cc(c34)C[C@H]2N(C)C1 [LSD, reference compound]
head twitch responses (HTRs) ([1]; 0.3 mg/kg LSD): stimulated
distance travelled in the open field, locomotion post injection (31-60 min) ([2]; 0.3 mg/kg LSD): significantly higher

C[C@@H]1C=C(c2c[nH]c3ncccc23)CN(C)C1 [compound 33, (R)-3-(1,5-dimethyl-1,2,5,6-tetrahydropyridin-3-yl)-1H-pyrrolo[2,3-b]pyridine]
EC50 [3]: 110 nM
5-HT2AR Rmax ± S.E.M [3]: (73.3%
pEC50 [4]: 6.15
5-HT2BR Rmax ± S.E.M [4]: (50.5%
pEC50 [5]: 5.49
5-HT2CR Rmax ± S.E.M [5]: (51.7%
head twitch responses (HTRs) ([1]; 1 mg/kg): neither 38 nor 33 induced substantial HTRs; also recorded: not different from each other
distance travelled in the open field, locomotion post injection (31-60 min) ([2]; 1 mg/kg): do not enhance locomotion; also recorded: not different from one another
immobility time during the tail suspension test, HET mice versus WTs given the same treatment ([6]; 1 mg/kg i.p., p=0.051): less time immobile
immobility time during the tail suspension test ([6]; VMAT2 HET mice, 0.5 mg/kg i.p.): reduced immobility time significantly
immobility time during the tail suspension test ([6]; VMAT2 HET mice, 1 mg/kg i.p., 1 mg/kg): restored wild-type levels of mobility; also recorded: reduced immobility time significantly
immobility time during the tail suspension test ([6]; WT mice, 0.5 mg/kg i.p.): no effects
immobility time during the tail suspension test ([6]; WT mice, 1 mg/kg i.p.): no effects
pKi [7]: 6.06
pKi [8]: 6.36
pKi [9]: 6.32

C[C@H]1C=C(c2c[nH]c3ncccc23)CN(C)C1 [compound 34, (S)-3-(1,5-dimethyl-1,2,5,6-tetrahydropyridin-3-yl)-1H-pyrrolo[2,3-b]pyridine]
pEC50 [3]: 5.94
5-HT2AR Rmax ± S.E.M [3]: (7.1%
5-HT2BR EC50 [4]: antagonist
5-HT2CR EC50 [5]: antagonist
pKi [7]: 5.82
pKi [8]: 6.19
Ki [9]: 741 nM
pKi [9]: 6.12

Cc1ncc(CCN2CC(c3c[nH]c4ncccc34)=C[C@@H](C)C2)cn1 [compound 40, (R)-3-(5-methyl-1-(2-(2-methylpyrimidin-5-yl)ethyl)-1,2,5,6-tetrahydropyridin-3-yl)-1H-pyrrolo[2,3-b]pyridine]
5-HT2AR EC50 [3]: antagonist
pEC50 [4]: 5.42
5-HT2BR Rmax ± S.E.M [4]: (54.5%
5-HT2CR EC50 [5]: antagonist
Ki [7]: 398 nM
Ki [8]: 3980 nM
pKi [8]: 5.39
pKi [9]: 6.08

Cc1ncc(CCN2CC(c3c[nH]c4ncccc34)=C[C@H](C)C2)cn1 [compound 41, (S)-3-(5-methyl-1-(2-(2-methylpyrimidin-5-yl)ethyl)-1,2,5,6-tetrahydropyridin-3-yl)-1H-pyrrolo[2,3-b]pyridine]
5-HT2AR EC50 [3]: antagonist
5-HT2BR EC50 [4]: antagonist
5-HT2CR EC50 [5]: antagonist
Ki [7]: 25.7 nM
pKi [7]: 7.60
pKi [8]: 6.09
Ki [9]: 28.8 nM
pKi [9]: 7.52

C[C@@H]1C=C(c2c[nH]c3ncccc23)CN(CC2CC2)C1 [compound 45, (R)-3-(1-(cyclopropylmethyl)-5-methyl-1,2,5,6-tetrahydropyridin-3-yl)-1H-pyrrolo[2,3-b]pyridine]
EC50 [3]: 457 nM
pEC50 [3]: 6.35
5-HT2AR Rmax ± S.E.M [3]: (25.0%
5-HT2BR EC50 [4]: antagonist
5-HT2CR EC50 [5]: antagonist
Ki [7]: 2880 nM
pKi [7]: 5.53
pKi [8]: < 5.00
pKi [9]: 5.36

C[C@H]1C=C(c2c[nH]c3ncccc23)CN(CC2CC2)C1 [compound 46, (S)-3-(1-(cyclopropylmethyl)-5-methyl-1,2,5,6-tetrahydropyridin-3-yl)-1H-pyrrolo[2,3-b]pyridine]
5-HT2AR EC50 [3]: antagonist
pEC50 [4]: 5.93
5-HT2BR Rmax ± S.E.M [4]: (43.8%
5-HT2CR EC50 [5]: antagonist
pKi [7]: 5.61
pKi [8]: 5.67
pKi [9]: 6.11

C[C@@H]1C=C(c2c[nH]c3ncccc23)CN(Cc2cnco2)C1 [compound 47, (R)-5-((3-methyl-5-(1H-pyrrolo[2,3-b]pyridin-3-yl)-3,6-dihydropyridin-1(2H)-yl)methyl)oxazole]
EC50 [3]: 977 nM
pEC50 [3]: 6.00
5-HT2AR Rmax ± S.E.M [3]: (68.3%
pEC50 [4]: 6.03
5-HT2BR Rmax ± S.E.M [4]: (75.8%
pEC50 [5]: < 5.00
pKi [7]: 5.14
pKi [8]: < 5.00
pKi [9]: < 5.00

C1=C(c2c[nH]c3ncccc23)CNCC1 [compound 49, 3-(1,2,5,6-tetrahydropyridin-3-yl)-1H-pyrrolo[2,3-b]pyridine]
EC50 [3]: 151 nM
5-HT2AR Rmax ± S.E.M [3]: (43.9%
pEC50 [4]: 6.20
5-HT2BR Rmax ± S.E.M [4]: (34.8%
EC50 ([5]; bracketed value below EC50, read-out: 5-HT2CR pEC50 ± S.E.M (converted)): 832 nM
pEC50 [5]: 6.09
5-HT2CR Rmax ± S.E.M [5]: (45.9%
Ki [7]: 398 nM
Ki [8]: 257 nM
Ki [9]: 288 nM
